Calls of active or inactive are those of the source. The rule behind the calls is not given here.

For test [1], the system named is MKN-45. The experiment in a line: Cytotoxicity against human MKN45 cells assessed as reduction in cell viability after 72 hrs by MTT assay. It counts as functional, cell-based. Particulars: MKN-45, 72 h. On the technique in general: Formazan colour is commonly taken as a measure of viable cells.
Test [2] has as its system A549. Put plainly: Cytotoxicity against human A549 cells assessed as reduction in cell viability after 72 hrs by MTT assay. Particulars: A549, 72 h. It counts as functional, cell-based.
Test [3] in a line: Cytotoxicity against human SGC cells assessed as reduction in cell viability after 72 hrs by MTT assay. It counts as functional, cell-based.
The next test relates to NCI-H1975. Put plainly: Cytotoxicity against human NCI-H1975 cells assessed as reduction in cell viability after 72 hrs by MTT assay. It counts as functional, cell-based. The note with it: NCI-H1975, 72 h.
Test [4] can be described thus: Antifibrotic activity against Wistar rat cardiac fibroblasts assessed as inhibition of cell proliferation at 20 uM after 12 hrs by MTT assay relative to control. It counts as functional.
Test [5] concerns RAW264.7. Put plainly: Anti-inflammatory activity in mouse RAW264.7 cells assessed as inhibition of LPS-induced NO production by measuring NO level at 10 ug/ml preincubated for 1 hr followed by LPS-stimulation measured after 24 hrs by Griess assay. It counts as functional. For orientation: Nitrite, measured by Griess reagent, commonly stands in for NO production.
For test [6], the system named is MKN-45. The experiment in a line: Potency index, ratio of gefitinib IC50 to compound IC50 for human MKN45 cells. Type of test: functional.
Test [7] concerns A549. The experiment in a line: Potency index, ratio of gefitinib IC50 to compound IC50 for human A549 cells. It counts as functional.
The target of test [8] is Epidermal growth factor receptor (Homo sapiens, UniProt P00533, L858R/T790M). Put plainly: Inhibition of EGFR T790M/L858R double mutant (unknown origin) using peptide substrate after 60 mins by HTRF assay. For orientation: TR-FRET usually uses a lanthanide donor and a delayed reading to cut background.
Test [9] deals with Epidermal growth factor receptor (Homo sapiens, UniProt P00533). Put plainly: Inhibition of EGFR (unknown origin) using peptide substrate after 60 mins by HTRF assay.
Test [10] concerns the target Vascular endothelial growth factor receptor 2 (Homo sapiens, UniProt P35968). The experiment in a line: Inhibition of VEGFR2 (unknown origin) using peptide substrate after 60 mins by HTRF assay.
The nature of test [11]: Potency index, ratio of gefitinib IC50 to compound IC50 for human SGC cells. It counts as functional.
For test [12], the system named is RAW264.7. Put plainly: Anti-inflammatory activity in mouse RAW264.7 cells assessed as inhibition of LPS-induced NO production by measuring NO level at 2.5 ug/ml preincubated for 1 hr followed by LPS-stimulation measured after 24 hrs by Griess assay. Type of test: functional.
The subject of test [13] is RAW264.7. Put plainly: Anti-inflammatory activity in mouse RAW264.7 cells assessed as inhibition of LPS-induced NO production by measuring NO level at 5 ug/ml preincubated for 1 hr followed by LPS-stimulation measured after 24 hrs by Griess assay. It counts as functional.
Test [14] can be described thus: Inhibition of ATX (unknown origin). Set-up: species or system Homo sapiens.
Test [15] is described as follows: Inhibition of glycosylated human ATX using substrate FS-3 preincubated for 45 mins followed by substrate addition measured after 45 mins by fluorescence assay.
A short description of test [16]: Antifibrotic activity against TGF-induced Wistar rat cardiac fibroblasts assessed as inhibition of cell proliferation after 12 hrs by MTT assay. It counts as functional.

Vascular endothelial growth factor receptor 2, sequence (P35968 whole entry): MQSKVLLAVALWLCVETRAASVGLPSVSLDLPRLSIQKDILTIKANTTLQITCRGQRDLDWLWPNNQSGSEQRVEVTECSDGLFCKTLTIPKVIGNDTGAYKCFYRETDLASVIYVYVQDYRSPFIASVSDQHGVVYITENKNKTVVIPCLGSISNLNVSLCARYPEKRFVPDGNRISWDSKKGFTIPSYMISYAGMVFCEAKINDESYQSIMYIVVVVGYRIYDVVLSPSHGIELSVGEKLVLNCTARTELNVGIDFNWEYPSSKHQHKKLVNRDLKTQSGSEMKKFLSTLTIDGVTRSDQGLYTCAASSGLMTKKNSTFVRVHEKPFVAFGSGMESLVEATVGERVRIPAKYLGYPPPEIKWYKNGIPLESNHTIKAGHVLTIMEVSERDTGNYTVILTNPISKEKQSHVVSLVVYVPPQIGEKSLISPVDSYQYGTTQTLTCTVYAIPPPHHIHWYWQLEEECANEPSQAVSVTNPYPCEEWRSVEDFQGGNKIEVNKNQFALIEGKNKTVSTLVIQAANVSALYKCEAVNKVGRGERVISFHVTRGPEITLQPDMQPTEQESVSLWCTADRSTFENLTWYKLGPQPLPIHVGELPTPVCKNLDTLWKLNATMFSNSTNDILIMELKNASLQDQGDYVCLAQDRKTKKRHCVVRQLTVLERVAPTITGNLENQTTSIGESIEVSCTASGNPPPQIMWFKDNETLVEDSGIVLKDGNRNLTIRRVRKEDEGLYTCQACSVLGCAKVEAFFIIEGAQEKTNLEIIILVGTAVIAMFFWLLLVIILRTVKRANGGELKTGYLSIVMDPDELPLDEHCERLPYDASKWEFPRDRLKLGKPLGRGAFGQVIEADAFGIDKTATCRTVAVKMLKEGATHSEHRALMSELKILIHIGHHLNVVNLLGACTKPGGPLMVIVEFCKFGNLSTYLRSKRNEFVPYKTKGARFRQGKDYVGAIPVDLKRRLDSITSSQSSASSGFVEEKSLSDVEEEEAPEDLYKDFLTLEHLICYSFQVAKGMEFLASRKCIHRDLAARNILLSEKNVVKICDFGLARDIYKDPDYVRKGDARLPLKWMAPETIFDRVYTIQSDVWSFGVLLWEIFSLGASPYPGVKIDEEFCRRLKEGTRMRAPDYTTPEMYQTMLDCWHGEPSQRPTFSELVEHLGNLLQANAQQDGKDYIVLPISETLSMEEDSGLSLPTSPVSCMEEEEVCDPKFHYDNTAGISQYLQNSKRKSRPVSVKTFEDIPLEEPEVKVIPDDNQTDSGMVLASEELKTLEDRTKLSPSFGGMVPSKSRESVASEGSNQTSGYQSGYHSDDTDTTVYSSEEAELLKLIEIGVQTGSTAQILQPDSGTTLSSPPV
Epidermal growth factor receptor (Homo sapiens, UniProt P00533), sequence (P00533 whole entry): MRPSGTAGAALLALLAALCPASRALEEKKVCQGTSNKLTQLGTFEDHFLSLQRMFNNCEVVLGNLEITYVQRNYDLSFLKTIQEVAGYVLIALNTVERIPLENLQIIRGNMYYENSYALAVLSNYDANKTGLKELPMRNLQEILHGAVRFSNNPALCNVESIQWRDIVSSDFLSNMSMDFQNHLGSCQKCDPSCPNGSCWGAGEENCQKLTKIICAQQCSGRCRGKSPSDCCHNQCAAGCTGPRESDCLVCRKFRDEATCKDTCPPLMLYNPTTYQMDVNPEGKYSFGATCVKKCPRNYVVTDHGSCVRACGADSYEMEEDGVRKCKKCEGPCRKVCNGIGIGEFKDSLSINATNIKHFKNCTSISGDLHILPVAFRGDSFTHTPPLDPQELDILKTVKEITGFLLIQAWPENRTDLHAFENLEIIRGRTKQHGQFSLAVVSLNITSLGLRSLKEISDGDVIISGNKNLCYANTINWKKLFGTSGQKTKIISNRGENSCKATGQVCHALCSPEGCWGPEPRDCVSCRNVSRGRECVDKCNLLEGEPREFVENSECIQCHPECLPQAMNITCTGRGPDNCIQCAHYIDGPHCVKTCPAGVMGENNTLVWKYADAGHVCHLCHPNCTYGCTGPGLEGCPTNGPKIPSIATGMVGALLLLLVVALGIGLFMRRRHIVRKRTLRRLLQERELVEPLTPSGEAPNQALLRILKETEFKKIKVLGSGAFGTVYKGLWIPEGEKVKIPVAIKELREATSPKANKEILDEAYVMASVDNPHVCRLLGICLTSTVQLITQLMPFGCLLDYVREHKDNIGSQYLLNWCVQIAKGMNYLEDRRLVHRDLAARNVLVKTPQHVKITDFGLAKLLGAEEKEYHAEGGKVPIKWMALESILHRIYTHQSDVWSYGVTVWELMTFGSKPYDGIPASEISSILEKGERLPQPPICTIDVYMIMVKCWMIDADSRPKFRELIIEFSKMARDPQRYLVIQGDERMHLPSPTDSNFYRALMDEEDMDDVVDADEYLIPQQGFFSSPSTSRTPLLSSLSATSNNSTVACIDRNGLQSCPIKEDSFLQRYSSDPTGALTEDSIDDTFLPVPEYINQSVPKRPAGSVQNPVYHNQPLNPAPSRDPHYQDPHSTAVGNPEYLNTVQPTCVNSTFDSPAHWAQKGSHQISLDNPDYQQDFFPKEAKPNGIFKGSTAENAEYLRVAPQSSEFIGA
Epidermal growth factor receptor (Homo sapiens, UniProt P00533, L858R/T790M), sequence (P00533 25-1210 T790M/L858R limits assumed): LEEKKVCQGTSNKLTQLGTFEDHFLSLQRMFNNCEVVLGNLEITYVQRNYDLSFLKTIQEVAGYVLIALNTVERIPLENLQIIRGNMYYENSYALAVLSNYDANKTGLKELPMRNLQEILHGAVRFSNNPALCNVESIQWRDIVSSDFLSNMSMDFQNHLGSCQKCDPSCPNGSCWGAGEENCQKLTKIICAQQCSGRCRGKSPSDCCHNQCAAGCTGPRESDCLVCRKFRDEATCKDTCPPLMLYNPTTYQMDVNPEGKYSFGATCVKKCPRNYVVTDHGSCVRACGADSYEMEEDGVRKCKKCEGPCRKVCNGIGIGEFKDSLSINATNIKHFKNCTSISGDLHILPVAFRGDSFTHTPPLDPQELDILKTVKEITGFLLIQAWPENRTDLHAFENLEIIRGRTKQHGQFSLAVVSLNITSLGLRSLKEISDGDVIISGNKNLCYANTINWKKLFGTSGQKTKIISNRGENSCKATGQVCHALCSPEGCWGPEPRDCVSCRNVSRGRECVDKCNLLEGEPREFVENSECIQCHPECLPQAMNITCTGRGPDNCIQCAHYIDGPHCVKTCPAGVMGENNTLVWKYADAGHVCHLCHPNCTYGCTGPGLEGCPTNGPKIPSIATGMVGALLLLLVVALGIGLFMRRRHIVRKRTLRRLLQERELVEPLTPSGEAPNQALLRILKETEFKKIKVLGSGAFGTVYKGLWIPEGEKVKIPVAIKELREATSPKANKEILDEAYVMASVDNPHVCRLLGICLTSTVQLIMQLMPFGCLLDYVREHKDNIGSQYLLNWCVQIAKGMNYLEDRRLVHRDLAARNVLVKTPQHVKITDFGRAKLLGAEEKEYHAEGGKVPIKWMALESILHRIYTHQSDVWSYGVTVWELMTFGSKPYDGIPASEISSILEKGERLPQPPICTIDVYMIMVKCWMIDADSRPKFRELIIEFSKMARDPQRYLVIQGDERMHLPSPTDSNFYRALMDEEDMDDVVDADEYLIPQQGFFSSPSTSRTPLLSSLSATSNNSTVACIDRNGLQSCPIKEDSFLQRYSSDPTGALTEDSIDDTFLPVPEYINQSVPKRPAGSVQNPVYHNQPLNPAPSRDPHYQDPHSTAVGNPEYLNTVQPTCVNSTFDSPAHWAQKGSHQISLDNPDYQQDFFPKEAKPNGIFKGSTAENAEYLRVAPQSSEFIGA

For the compound `O=C(N/N=C/c1ccc(F)cc1)N1CCc2ncnc(Nc3cccc(C(F)(F)F)c3)c2C1`, the IC50 (usually the concentration that inhibits the measured activity by half) in the test on MKN-45 [1] stood at 4 µM; with A549 [2], 6.37 µM; in test [3], 4.23 µM; with NCI-H1975, 55.6 µM.
Consider `CSc1ccc(/C=N/NC(=O)N2CCc3ncnc(Nc4ccc(F)c(Cl)c4)c3C2)cc1`, for which, in test [4], the inhibition (usually the drop in the measured response relative to a control, in per cent) at 20 µM lay in the range of 65 to 83%. Also, the Activity in the test on RAW264.7 [5] is below 1.9 µM.
In the case of `O=C(N/N=C/c1ccc(Br)cc1)N1CCc2ncnc(Nc3ccc(F)c(Cl)c3)c2C1`, the IC50 was 12.1 µM in the test on MKN-45 [1], 14.1 µM with A549 [2], 13.5 µM in test [3] and above 200 µM in the test with NCI-H1975. Besides, in [4], the inhibition at 20 µM lay in the range of 65 to 83%.
In the case of `Cc1ccc(/C=N/NC(=O)N2CCc3ncnc(Nc4ccc(F)c(Cl)c4)c3C2)cc1C`, the IC50 in the test on MKN-45 [1] was 18.1 µM; with A549 [2], 15.6 µM; in test [3], 11.5 µM; in the test with NCI-H1975 it was 6.83 µM.
Turning to `O=C(N/N=C/c1ccc(F)cc1Cl)N1CCc2ncnc(Nc3cccc(Br)c3)c2C1`, the “Ratio IC50” value was determined as 6.1 in the test with MKN-45 [6], 7.6 in the test on A549 [7] and 3.3 in test [11]. Also, the IC50 in [8] was found to be 0.94 µM; in the test on MKN-45 [1], 1.71 µM; in test [9], 0.018 µM; in the test on A549 [2], 1.61 µM; in test [10], 0.133 µM; in test [3], 0.99 µM. Moreover, the IC50 with NCI-H1975 was found to be 15.7 µM. Moreover, the inhibition entry with RAW264.7 [12], in the test with RAW264.7 [13] and in the test with RAW264.7 [5] was “Active” each time.
Regarding `O=C(N/N=C/c1cccc([N+](=O)[O-])c1)N1CCc2ncnc(Nc3ccc(F)c(Cl)c3)c2C1`, the IC50 was above 200 µM in the test on MKN-45 [1], 43.1 µM in the test with A549 [2], 34.8 µM in test [3] and 86.9 µM with NCI-H1975.
`O=C(N/N=C/c1ccc(C(F)(F)F)cc1)N1CCc2ncnc(Nc3cccc(C(F)(F)F)c3)c2C1`: the inhibition at 20 µM in test [4] was 65 to 83%.
Turning to `N#Cc1ccc(/C=N/NC(=O)N2CCc3ncnc(Nc4ccc(F)c(Cl)c4)c3C2)cc1`, the IC50 in the test on MKN-45 [1] worked out at 52.3 µM; in the test with A549 [2] it was 42.6 µM; in [3], 35.8 µM; in the test with NCI-H1975, 67.5 µM.
On to `O=C(N/N=C/c1cccs1)N1CCc2ncnc(Nc3ccc(F)c(Cl)c3)c2C1`, for which the IC50 was 57.3 µM in the test with MKN-45 [1]; 0.0625 µM in [9]; above 200 µM with A549 [2]; 0.237 µM in test [10]; 96.3 µM in test [3]; 33 µM in the test with NCI-H1975. Moreover, in test [4], the inhibition at 20 µM amounted to 83%. The Activity with RAW264.7 [5] was below 1.9 µM.
On to `O=C(N/N=C/c1ccc(Br)cc1)N1CCc2ncnc(Nc3cccc(Br)c3)c2C1`, for which the IC50 in the test with MKN-45 [1] is 23.6 µM; in the test with A549 [2] it was 6.56 µM; in [3], 6.93 µM; in the test with NCI-H1975, 51 µM. Moreover, in [4], the inhibition at 20 µM lay in the range of 65 to 83%. The inhibition entry with RAW264.7 [12], in the test with RAW264.7 [13] and with RAW264.7 [5] was “Active” in each case.
Turning to `O=C(CCc1nc2ccccc2s1)N1CCc2ncnc(Cc3ccc(F)cc3)c2C1`, the IC50 in test [14] came to 0.00259 µM; in test [15], 0.0104 µM. Also, in test [4], the inhibition at 20 µM amounted to 68%.
Take `O=C(N/N=C/c1cccs1)N1CCc2ncnc(Nc3cccc(C(F)(F)F)c3)c2C1`: the IC50 with MKN-45 [1] turned out to be 36.4 µM; in the test on A549 [2] it was 42.4 µM; in [3], 24.6 µM; with NCI-H1975, 169 µM. In test [4], the inhibition at 20 µM was 65 to 83%. In the test on RAW264.7 [5], the Activity is below 1.9 µM.
Turning to `O=C(N/N=C/c1cccs1)N1CCc2ncnc(Nc3cccc(Br)c3)c2C1`, the IC50 in the test on MKN-45 [1] is above 200 µM; in the test on A549 [2] it was 50.2 µM; in test [3], above 200 µM; in the test with NCI-H1975, 122 µM. In addition, in test [4], the inhibition at 20 µM lay in the range of 65 to 83%. In addition, the Activity in the test on RAW264.7 [5] was below 1.9 µM.
In the case of `O=C(N/N=C/c1cccnc1)N1CCc2ncnc(Nc3cccc(Br)c3)c2C1`, the concentration for half-maximal inhibition (IC50) is above 200 µM in the test on MKN-45 [1], 72.1 µM in the test with A549 [2], above 200 µM in [3] and above 200 µM with NCI-H1975.
For the compound `O=C(N/N=C/c1ccc(Br)cc1)N1CCc2ncnc(Nc3cccc(C(F)(F)F)c3)c2C1`, the IC50 came out at 11.4 µM in the test on MKN-45 [1], 11.5 µM in the test with A549 [2], 16.8 µM in test [3] and 61.4 µM with NCI-H1975. Also, the inhibition at 20 µM in test [4] lay in the range of 65 to 83%.
Consider `O=C(N/N=C/c1cccc(Br)c1)N1CCc2ncnc(Nc3cccc(Br)c3)c2C1`, for which the inhibition result with RAW264.7 [12], with RAW264.7 [13] and in the test with RAW264.7 [5] was “Active” each time.
`O=C(N/N=C/c1ccc(F)cc1)N1CCc2ncnc(Nc3ccc(F)c(Cl)c3)c2C1`: the IC50 turned out to be 10.8 µM in the test on MKN-45 [1], 11.4 µM with A549 [2], 16.9 µM in test [3] and 64.5 µM in the test on NCI-H1975.
With `O=C(N/N=C/c1cc(F)c(F)cc1Cl)N1CCc2ncnc(Nc3ccc(F)c(Cl)c3)c2C1`, the IC50 worked out at 7.33 µM with MKN-45 [1]; 1.91 µM in test [16]; 0.0423 µM in test [9]; 7.55 µM with A549 [2]; 0.0384 µM in [15]; 0.17 µM in [10]. Besides, the IC50 is 10.4 µM in [3] and 46.1 µM in the test with NCI-H1975. The inhibition at 20 µM in [4] was 65 to 83%.
For the compound `O=C(N/N=C/c1ccccc1)N1CCc2ncnc(Nc3ccc(F)c(Cl)c3)c2C1`, the IC50 with MKN-45 [1] came to 22.9 µM; in the test on A549 [2], 31.5 µM; in [3] it was 7.47 µM; in the test with NCI-H1975 it was 28.8 µM.
Consider `O=C(N/N=C/c1ccc(F)cc1)N1CCc2ncnc(Nc3cccc(Br)c3)c2C1`, for which the IC50 in the test on MKN-45 [1] was 2.49 µM; with A549 [2], 2.27 µM; in [3], 1.79 µM; in the test with NCI-H1975, 37.6 µM. The inhibition entry in the test with RAW264.7 [12], in the test on RAW264.7 [13] and in the test on RAW264.7 [5] was “Active” each time.
With `O=C(N/N=C/c1ccccc1)N1CCc2ncnc(Nc3cccc(Br)c3)c2C1`, the IC50 in the test on MKN-45 [1] turned out to be 22.4 µM; in the test on A549 [2] it was 22.7 µM; in test [3], 16.4 µM; in the test with NCI-H1975, 37.8 µM. In addition, the Activity in the test with RAW264.7 [5] was below 1.9 µM.
As to `O=C(N/N=C/c1ccco1)N1CCc2ncnc(Nc3cccc(Br)c3)c2C1`, the concentration for half-maximal inhibition (IC50) with MKN-45 [1] was 65.7 µM; with A549 [2], 47.1 µM; in test [3] it was above 200 µM; in the test with NCI-H1975, above 200 µM.
Regarding `O=C(N/N=C/c1ccc(C(F)(F)F)cc1)N1CCc2ncnc(Nc3ccc(F)c(Cl)c3)c2C1`, the IC50 amounted to 21.4 µM with MKN-45 [1], 37.8 µM in the test with A549 [2], 36.4 µM in test [3] and 36.8 µM with NCI-H1975. The inhibition at 20 µM in [4] was 65 to 83%. In addition, the Activity in the test with RAW264.7 [12] came to 3.87 µM; in the test on RAW264.7 [13] it was 2.1 µM; with RAW264.7 [5], 0.79 µM.

The values above are taken from ChEMBL document CHEMBL4219106, “Discovery and optimization of tetrahydropyrido[4,3-d]pyrimidine derivatives as novel ATX and EGFR dual inhibitors” (Bioorg Med Chem, 2018).
